Key:
Type in all cases: cell-based
Notch signalling [1] = assay: Notch reporter assay (12xCSL firefly luciferase / renilla luciferase, HEK293T Notch1ΔE reporter cell line clone #A1-11); parameters: AUC Notch: scale not given here; Confirmation screen: unit not given here; details: for inhibitor ratio in % of DMSO in 3 point DR: 3-point DR confirmation screen, Notch reporter assay; for Bottom (Emax): 14p Notch assay DR, Emax indicated independent from assay constraints, in % (unit assumed); for AUC Notch: area under the 14-point dose-response curve, replicates averaged
Outline: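 Compounds at two-fold concentration in 10 µl medium were brought to one-fold by adding 10 µl holding 4000 Notch reporter cells (clone #A1-11) per well of a 384-well plate. After 24 h, Promega dual-GLO firefly and renilla luciferase were read on a SpectraMaxi3. Dose-response curves were fitted with a log(inhibitor) vs. response variable-slope model.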

γ-secretase complex = γ-secretase complex (Homo sapiens, UniProt P49768); assay: APP-C99 counter assay (GSI reporter assay); parameters: AUC APP: scale not given here; details: for 3p-DR in % of DMSO counter: APP-C99 counter assay; for Hill-slope: 14p APP assay DR, bottom constrained to Emax of positive control LY-411575; for AUC APP: area under the 14-point dose-response curve, replicates averaged
Outline: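 Cells transfected with APP-C99 firefly luciferase reporter plus renilla normalization plasmid, seeded 24 h later onto compound plates and cultured 24 h. Dual luciferase read in triplicate per concentration; IC50 from variable-slope log(inhibitor) fit, with AUC also calculated from dose–response curves.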

Notch signalling [2] = assay: Notch reporter assay (12xCSL firefly luciferase / renilla luciferase, HEK293T Notch1ΔE reporter cell line clone #A1-11); details: 24 h, unit from Fig. 2 legend
[3] = 10 µM, sheet conf vs counter 10 µM, same values as 3-point DR confirmation screen
[4] = 25 µM, Notch reporter 3-point dose-confirmation assay, sheet "conf vs counter 25 µM"
[5] = 10 µM, sheet conf vs counter 10 µM
[6] = 25 µM, sheet "conf vs counter 25 µM", same values given as % of DMSO in sheet "3p-DR in % of DMSO counter"

COc1cc(Nc2cc(-c3ccccc3N(C)C)ncn2)cc(OC)c1OC [CBK090702]
inhibitor ratio in % of DMSO in 3 point DR (Notch signalling [1]; 10µM): 85.7 % of DMSO | Confirmation screen (Notch signalling [1]; [3]): 85.7 | inhibitor ratio in % of DMSO in 3 point DR (Notch signalling [1]; 25µM): 55.7 % of DMSO | Confirmation screen (Notch signalling [1]; [4]): 55.7 | inhibitor ratio in % of DMSO in 3 point DR (Notch signalling [1]; 1,25µM): 97.2 % of DMSO | 3p-DR in % of DMSO counter (γ-secretase complex; 10µM): 148.1 % of DMSO | Counter screen (Hek APP-C99) (γ-secretase complex; [5]): 148.1 | 3p-DR in % of DMSO counter (γ-secretase complex; 25µM): 225.5 % of DMSO | Counter screen (Hek APP-C99) (γ-secretase complex; [6]): 225.5 | 3p-DR in % of DMSO counter (γ-secretase complex; 1,25µM): 124.5 % of DMSO | Primary screen at 10 µM (Notch reporter signal) (Notch signalling [2]): 68.4 % of DMSO

O=C(Nc1ccc(O)c(-c2nc3ccccc3o2)c1)c1ccc(-c2ccc([N+](=O)[O-])cc2)o1 [CBK263439]
inhibitor ratio in % of DMSO in 3 point DR (Notch signalling [1]; 10µM): 110.7 % of DMSO | Confirmation screen (Notch signalling [1]; [3]): 110.7 | inhibitor ratio in % of DMSO in 3 point DR (Notch signalling [1]; 25µM): 101.9 % of DMSO | Confirmation screen (Notch signalling [1]; [4]): 101.9 | inhibitor ratio in % of DMSO in 3 point DR (Notch signalling [1]; 1,25µM): 103.9 % of DMSO | 3p-DR in % of DMSO counter (γ-secretase complex; 10µM): 127.0 % of DMSO | Counter screen (Hek APP-C99) (γ-secretase complex; [5]): 127.0 | 3p-DR in % of DMSO counter (γ-secretase complex; 25µM): 166.0 % of DMSO | Counter screen (Hek APP-C99) (γ-secretase complex; [6]): 166.0 | 3p-DR in % of DMSO counter (γ-secretase complex; 1,25µM): 130.0 % of DMSO | Primary screen at 10 µM (Notch reporter signal) (Notch signalling [2]): 63.7 % of DMSO

O=C(O)c1c2c(nc3ccccc13)C(=Cc1ccc3c(c1)OCCO3)CC2 [CBK297479]
inhibitor ratio in % of DMSO in 3 point DR (Notch signalling [1]; 10µM): 15.2 % of DMSO | Confirmation screen (Notch signalling [1]; [3]): 15.2 | inhibitor ratio in % of DMSO in 3 point DR (Notch signalling [1]; 25µM): 7.0 % of DMSO | Confirmation screen (Notch signalling [1]; [4]): 7.0 | inhibitor ratio in % of DMSO in 3 point DR (Notch signalling [1]; 1,25µM): 22.8 % of DMSO | 3p-DR in % of DMSO counter (γ-secretase complex; 10µM): 16.4 % of DMSO | Counter screen (Hek APP-C99) (γ-secretase complex; [5]): 16.4 | 3p-DR in % of DMSO counter (γ-secretase complex; 25µM): 13.7 % of DMSO | Counter screen (Hek APP-C99) (γ-secretase complex; [6]): 13.7 | 3p-DR in % of DMSO counter (γ-secretase complex; 1,25µM): 29.7 % of DMSO | Primary screen at 10 µM (Notch reporter signal) (Notch signalling [2]): 18.5 % of DMSO

O=C(Nc1sccc1C(=O)N1CCOCC1)C(Sc1ccccc1)c1ccccc1 (stereo not drawn) [CBK268165]
inhibitor ratio in % of DMSO in 3 point DR (Notch signalling [1]; 10µM): 60.1 % of DMSO | Confirmation screen (Notch signalling [1]; [3]): 60.1 | inhibitor ratio in % of DMSO in 3 point DR (Notch signalling [1]; 25µM): 57.1 % of DMSO | Confirmation screen (Notch signalling [1]; [4]): 57.1 | inhibitor ratio in % of DMSO in 3 point DR (Notch signalling [1]; 1,25µM): 101.2 % of DMSO | 3p-DR in % of DMSO counter (γ-secretase complex; 10µM): 58.6 % of DMSO | Counter screen (Hek APP-C99) (γ-secretase complex; [5]): 58.6 | 3p-DR in % of DMSO counter (γ-secretase complex; 25µM): 58.2 % of DMSO | Counter screen (Hek APP-C99) (γ-secretase complex; [6]): 58.2 | 3p-DR in % of DMSO counter (γ-secretase complex; 1,25µM): 84.7 % of DMSO | Primary screen at 10 µM (Notch reporter signal) (Notch signalling [2]): 64.8 % of DMSO

c1ccc2c(c1)CCN(c1nc3cc4c(cc3s1)OCCO4)C2 [CBK287498]
inhibitor ratio in % of DMSO in 3 point DR (Notch signalling [1]; 10µM): 38.9 % of DMSO | Confirmation screen (Notch signalling [1]; [3]): 38.9 | inhibitor ratio in % of DMSO in 3 point DR (Notch signalling [1]; 25µM): 27.1 % of DMSO | Confirmation screen (Notch signalling [1]; [4]): 27.1 | inhibitor ratio in % of DMSO in 3 point DR (Notch signalling [1]; 1,25µM): 48.5 % of DMSO | 3p-DR in % of DMSO counter (γ-secretase complex; 10µM): 45.9 % of DMSO | Counter screen (Hek APP-C99) (γ-secretase complex; [5]): 45.9 | 3p-DR in % of DMSO counter (γ-secretase complex; 25µM): 37.5 % of DMSO | Counter screen (Hek APP-C99) (γ-secretase complex; [6]): 37.5 | 3p-DR in % of DMSO counter (γ-secretase complex; 1,25µM): 59.5 % of DMSO | Primary screen at 10 µM (Notch reporter signal) (Notch signalling [2]): 36.8 % of DMSO

CC(=O)Nc1cccc(-c2ccc(Nc3cccc(N(C)C)c3)nc2)c1 [CBK036829]
inhibitor ratio in % of DMSO in 3 point DR (Notch signalling [1]; 10µM): 28.3 % of DMSO | Confirmation screen (Notch signalling [1]; [3]): 28.3 | inhibitor ratio in % of DMSO in 3 point DR (Notch signalling [1]; 25µM): 23.9 % of DMSO | Confirmation screen (Notch signalling [1]; [4]): 23.9 | inhibitor ratio in % of DMSO in 3 point DR (Notch signalling [1]; 1,25µM): 30.6 % of DMSO | 3p-DR in % of DMSO counter (γ-secretase complex; 10µM): 40.4 % of DMSO | Counter screen (Hek APP-C99) (γ-secretase complex; [5]): 40.4 | 3p-DR in % of DMSO counter (γ-secretase complex; 25µM): 38.9 % of DMSO | Counter screen (Hek APP-C99) (γ-secretase complex; [6]): 38.9 | 3p-DR in % of DMSO counter (γ-secretase complex; 1,25µM): 49.9 % of DMSO | Primary screen at 10 µM (Notch reporter signal) (Notch signalling [2]): 22.4 % of DMSO

Cc1cc(C)c2[nH]c(C(=O)N[C@H](c3ccccc3)c3ccnn3C)c(C)c2c1 [CBK315984]
approximated IC50, Notch reporter assay (Notch signalling [1]; 14-point dose-response, Fig. 4): Indeterminate | Bottom (Emax) (Notch signalling [1]): 96.7 | AUC Notch (Notch signalling [1]): 607.0 | Hill-slope (γ-secretase complex): -1.0 | AUC APP (γ-secretase complex): 698.8

COc1cccc(-c2nnc(NC(=O)c3ccc4c(c3)OCCO4)o2)c1 [CBK287591]
Bottom (Emax) (Notch signalling [1]): 88.3 | AUC Notch (Notch signalling [1]): 363.0 | Hill-slope (γ-secretase complex): -1.2 | AUC APP (γ-secretase complex): 490.0
